In patent US12686689B2, “HPK1 inhibitor, preparation method therefor and use thereof” (WIGEN BIOMEDICINE TECHNOLOGY (SHANGHAI) CO., LTD., priority 2020, dated 2026):

The compounds below were run against HPK1 (Homo sapiens, UniProt Q92918) (assay: Inhibitory effect against enzyme activity of HPK1 (lantha Screen, PKC substrate)). Conditions: class symbols defined as IC50 ranges, read-out: Inhibition rate (%).
Type: biochemical
Method: Example 130: Assay of Inhibitory Effect of Compound Against Enzyme Activity of HPK1
The inhibitory effect of the compound against the enzyme activity of HPK1 was determined by using a lantha Screen method with PKC as a substrate. The process comprises the following specific steps: the HPK1 protein was incubated with the serially-diluted compound at 28° C. for 10 min followed by addition of fluoroescein-labeled PKC substrate and ATP to react for 90 min. After termination of the reaction, a Terbium-labeled antibody against phosphorylated PKC was added and incubated for 60 min. The energy transfer of Teribium and fluoroscein was monitored by detecting luminescence at 520 nm and 450 nm to quantify PKC as the level of phosphorylation of […]. Inhibition % and IC50 of the compound were calculated compared to the control group.

HPK1, sequence (Q92918 whole entry): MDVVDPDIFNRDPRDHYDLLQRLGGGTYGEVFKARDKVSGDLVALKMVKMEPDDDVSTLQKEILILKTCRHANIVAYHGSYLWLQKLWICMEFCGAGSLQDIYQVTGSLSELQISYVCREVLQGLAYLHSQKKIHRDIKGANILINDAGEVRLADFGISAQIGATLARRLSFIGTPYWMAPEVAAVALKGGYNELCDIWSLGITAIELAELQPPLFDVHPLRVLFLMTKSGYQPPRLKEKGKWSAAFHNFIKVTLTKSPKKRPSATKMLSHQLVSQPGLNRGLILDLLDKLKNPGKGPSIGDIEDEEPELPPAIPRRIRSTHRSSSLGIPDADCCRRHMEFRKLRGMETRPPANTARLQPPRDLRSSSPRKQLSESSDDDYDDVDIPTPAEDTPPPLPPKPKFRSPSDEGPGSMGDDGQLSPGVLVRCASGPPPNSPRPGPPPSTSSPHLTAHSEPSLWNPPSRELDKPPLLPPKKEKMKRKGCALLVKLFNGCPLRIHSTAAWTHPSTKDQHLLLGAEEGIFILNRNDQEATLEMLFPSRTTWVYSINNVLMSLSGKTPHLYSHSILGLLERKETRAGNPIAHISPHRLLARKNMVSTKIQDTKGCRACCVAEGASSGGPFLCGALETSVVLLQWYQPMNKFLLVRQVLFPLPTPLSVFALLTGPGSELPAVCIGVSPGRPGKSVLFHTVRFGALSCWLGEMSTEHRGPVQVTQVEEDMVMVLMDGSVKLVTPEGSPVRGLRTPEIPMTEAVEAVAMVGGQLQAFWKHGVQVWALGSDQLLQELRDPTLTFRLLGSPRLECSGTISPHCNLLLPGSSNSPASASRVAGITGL

| Compound | IC50 [nM] |
| --- | --- |
| COc1c(F)ccc(F)c1-c1cc2c(-c3ccc4c(c3)OCC3CN(C)CCN43)n[nH]c2cn1 (centres unmarked) [Compound 75] | 10 to 100 |
| CN1CCN2c3ccc(-c4n[nH]c5cc(C#N)c(-c6cccc7[nH]ncc67)cc45)cc3OCC2C1 (centres unmarked) [Compound 50] | ≤ 10 |
| CNCc1cc(C)c(-c2cc3c(-c4ccc5c(c4)OCC4CN(CC(F)(F)F)CCN54)n[nH]c3cc2C#N)c(F)c1 (centres unmarked) [Compound 128] | ≤ 10 |
| CNCc1cc(F)c(-c2cc3c(-c4ccc5c(c4)OCC4CN(C)CCN54)c[nH]c3cc2C#N)c(F)c1 (centres unmarked) [Compound 93] | ≤ 10 |
| Cc1ccncc1-c1cc2c(-c3ccc4c(c3)OCC3CN(C)CCN43)n[nH]c2cn1 (centres unmarked) [Compound 70] | ≤ 10 |
| CNCc1cc(C)c(-c2ccc3[nH]nc(-c4ccc5c(c4)OCC4CN(C)CCN54)c3n2)c(F)c1 (centres unmarked) [Compound 86] | 10 to 100 |
| CN1CCN2c3ccc(-c4n[nH]c5cc(C#N)c(-c6c(F)cc(OC(=O)N(C)C)cc6F)cc45)cc3OCC2C1 (centres unmarked) [Compound 34] | 10 to 100 |
| CNCc1cc(C)c(-c2cc3c(-c4ccc5c(c4)OCC4CN(C)CCN54)c[nH]c3cn2)c(F)c1 (centres unmarked) [Compound 89] | ≤ 10 |
| CNCc1cc(C)c(-c2ncc3[nH]nc(-c4ccc5c(c4)OCC4CN(C)CCN54)c3n2)c(F)c1 (centres unmarked) [Compound 80] | 10 to 100 |
| CN1CCN2c3ccc(-c4cnc5[nH]cc(-c6ccc(C(=O)N7CC(O)C7)cc6)c5n4)cc3OCC2C1 (centres unmarked) [Compound 113] | ≤ 10 |
| CN1CCN2c3ccc(-c4cnc5[nH]cc(-c6ccc(C(=O)N7CC8(COC8)C7)cc6)c5c4)cc3OCC2C1 (centres unmarked) [Compound 106] | ≤ 10 |
| CNCc1cc(C)c(-c2cc3c(-c4ccc5c(c4)NCC4CN(C)CCN54)n[nH]c3cc2C#N)c(F)c1 (centres unmarked) [Compound 121] | ≤ 10 |
| CNCc1cc(F)c(-c2ncc3[nH]cc(-c4ccc5c(c4)OCC4CN(C)CCN54)c3n2)c(F)c1 (centres unmarked) [Compound 96] | 10 to 100 |
| CN1CCN2c3ccc(-c4n[nH]c5cc(C#N)c(-c6cncc7ccccc67)cc45)cc3OCC2C1 (centres unmarked) [Compound 54] | 10 to 100 |
| CN(C)CCCOc1ccc(-c2c[nH]c3ncc(-c4ccc5c(c4)OCC4CN(C)CCN54)cc23)cc1 (centres unmarked) [Compound 110] | ≤ 10 |
| COc1cccc(F)c1-c1ccc2[nH]cc(-c3ccc4c(c3)OCC3CN(C)CCN43)c2n1 (centres unmarked) [Compound 100] | ≤ 10 |
| CNCc1cc(C)c(-c2ncc3[nH]cc(-c4ccc5c(c4)OCC4CN(C)CCN54)c3n2)c(F)c1 (centres unmarked) [Compound 95] | ≤ 10 |
| CNCc1cc(F)c(-c2nc3c(-c4ccc5c(c4)OCC4CN(C)CCN54)c[nH]c3cc2C#N)c(F)c1 (centres unmarked) [Compound 99] | ≤ 10 |
| CN1CCN2c3ccc(-c4n[nH]c5cc(C#N)c(-c6cnc7cnn(C)c7c6)cc45)cc3OCC2C1 (centres unmarked) [Compound 51] | ≤ 10 |
| CN1CCN2c3ccc(-c4n[nH]c5cc(C#N)c(-c6cccn7ncnc67)cc45)cc3OCC2C1 (centres unmarked) [Compound 57] | ≤ 10 |
| CN1CCN2c3ccc(-c4n[nH]c5cnc(-c6cccn7ccnc67)cc45)cc3OCC2C1 (centres unmarked) [Compound 77] | ≤ 10 |
| CN1CCN2c3ccc(-c4cnc5[nH]cc(-c6ccc(C(=O)C7CNC7)cc6)c5c4)cc3OCC2C1 (centres unmarked) [Compound 108] | 10 to 100 |
| CN1CCN2c3ccc(-c4n[nH]c5cc(C#N)c(-c6cccc(C(=O)NCc7ccncc7)c6F)cc45)cc3OCC2C1 (centres unmarked) [Compound 10] | ≤ 10 |
| CN1CCN2c3ccc(-c4cnc5[nH]nc(-c6ccc(C(=O)N7CC(N(C)C)C7)cc6)c5c4)cc3OCC2C1 (centres unmarked) [Compound 115] | ≤ 10 |
| CN1CCN2c3ccc(-c4n[nH]c5cc(C#N)c(-c6cccn7ccnc67)cc45)cc3OCC2C1 (centres unmarked) [Compound 55] | ≤ 10 |

Other lines, results leading:

| IC50 [nM] | Compound |
| --- | --- |
| ≤ 10 | CN1CCN2c3ccc(-c4n[nH]c5cc(C#N)c(-c6cccc(C(N)=O)c6F)cc45)cc3OCC2C1 (centres unmarked) [Compound 9] |
| ≤ 10 | CN1CCN2c3ccc(-c4n[nH]c5cc(C#N)c(-c6c(F)cc(OCc7ccncc7)cc6F)cc45)cc3OCC2C1 (centres unmarked) [Compound 32] |
| ≤ 10 | CN1CCN2c3ccc(-c4n[nH]c5cc(C#N)c(-c6c(F)ccc7c6CCNC7)cc45)cc3OCC2C1 (centres unmarked) [Compound 37] |
| ≤ 10 | CN1CCN2c3ccc(-c4n[nH]c5cc(C#N)c(-c6ccccc6F)cc45)cc3OC[C@H]2C1 [Compound 1-b] |
| ≤ 10 | CN1CCN2c3ccc(-c4n[nH]c5cc(C#N)c(-c6cnccn6)cc45)cc3OCC2C1 (centres unmarked) [Compound 49] |
| ≤ 10 | CN1CCN2c3ccc(-c4n[nH]c5cc(C#N)c(-c6ccccc6F)cc45)cc3OCC2C1 (centres unmarked) [Compound 1, 5-(2-fluorophenyl)-3-(3-methyl-1,2,3,4,4a,5-hexahydrobenzo[b]pyrazino[1,2-d][1,4]oxazin-8-yl)-1H-indazole-6-carbonitrile] |
| ≤ 10 | COc1ccccc1-c1cc2c(-c3ccc4c(c3)OCC3CN(C)CCN43)n[nH]c2cc1C#N (centres unmarked) [Compound 2] |
| ≤ 10 | CCNCc1cc(F)c(-c2cc3c(-c4ccc5c(c4)OCC4CN(C)CCN54)n[nH]c3cc2C#N)c(F)c1 (centres unmarked) [Compound 21] |
| ≤ 10 | Cc1n[nH]cc1-c1cc2c(-c3ccc4c(c3)OCC3CN(C)CCN43)n[nH]c2cc1C#N (centres unmarked) [Compound 47] |
| 10 to 100 | CN1CCN2c3ccc(-c4n[nH]c5cc(C#N)c(-c6c(F)cc(NC(=O)Cc7cccnc7)cc6F)cc45)cc3OCC2C1 (centres unmarked) [Compound 31] |
| ≤ 10 | CN1CCN2c3ccc(-c4n[nH]c5cc(C#N)c(-c6c(F)cc(C7CCCN7)cc6F)cc45)cc3OCC2C1 (centres unmarked) [Compound 22] |
| ≤ 10 | CN1CCC(Oc2cc(F)c(-c3cc4c(-c5ccc6c(c5)OCC5CN(C)CCN65)n[nH]c4cc3C#N)c(F)c2)CC1 (centres unmarked) [Compound 33] |
| ≤ 10 | CN1CCN2c3ccc(-c4n[nH]c5cc(C#N)c(-c6c(F)cc(C7CCCC7N)cc6F)cc45)cc3OCC2C1 (centres unmarked) [Compound 26] |
| ≤ 10 | CN1CCN2c3ccc(-c4n[nH]c5cc(C#N)c(-c6cnc7nccnc7c6)cc45)cc3OCC2C1 (centres unmarked) [Compound 53] |
| ≤ 10 | COCc1cc(F)c(-c2cc3c(-c4ccc5c(c4)OCC4CN(C)CCN54)n[nH]c3cc2C#N)c(F)c1 (centres unmarked) [Compound 25] |
| ≤ 10 | CN1CCN2c3ccc(-c4n[nH]c5cc(C#N)c(-c6cccnc6)cc45)cc3OCC2C1 (centres unmarked) [Compound 41] |
| ≤ 10 | CN1CCN2c3ccc(-c4n[nH]c5cc(C#N)c(-c6c(F)cc(C7CCCCN7)cc6F)cc45)cc3OCC2C1 (centres unmarked) [Compound 23] |
| 10 to 100 | CN1CCN2c3ccc(-c4n[nH]c5cc(C#N)c(-c6c(F)cccc6F)cc45)cc3OCC2C1 (centres unmarked) [Compound 4] |
| 10 to 100 | CN1CCN2c3ccc(-c4n[nH]c5cc(C#N)c(-c6ccc(-c7ccccn7)cc6F)cc45)cc3OCC2C1 (centres unmarked) [Compound 40] |
| 10 to 100 | Cc1cccc(F)c1-c1cc2c(-c3ccc4c(c3)OCC3CN(C)CCN43)n[nH]c2cc1C#N (centres unmarked) [Compound 5] |
| ≤ 10 | CN1CCN2c3ccc(-c4n[nH]c5cc(C#N)c(-c6cccc(C#N)c6F)cc45)cc3OCC2C1 (centres unmarked) [Compound 8] |
| ≤ 10 | CN1CCN2c3ccc(-c4n[nH]c5cc(C#N)c(-c6c(F)cc(C(=O)N7CC(O)C7)cc6F)cc45)cc3OCC2C1 (centres unmarked) [Compound 36] |
| ≤ 10 | CN1CCN2c3ccc(-c4n[nH]c5cc(C#N)c(-c6c(F)cc7c(c6F)CC(N)CC7)cc45)cc3OCC2C1 (centres unmarked) [Compound 39] |
| ≤ 10 | Cc1cncc(-c2cc3c(-c4ccc5c(c4)OCC4CN(C)CCN54)n[nH]c3cc2C#N)c1 (centres unmarked) [Compound 45] |
| ≤ 10 | CN1CCN2c3ccc(-c4n[nH]c5cc(C#N)c(-c6ccccc6F)cc45)cc3OC[C@@H]2C1 [Compound 1-a] |
